{"source": "paper PMC6636782", "about": "(PLoS Neglected Tropical Diseases, 2019)", "key": {"HLA-B*07:02": {"biological_target": "T1, HLA-B*07:02 (Homo sapiens, UniProt P01889)", "T1 construct": "expressed in transfected cells; host or cells: RMA-S (TAP-deficient) cells transfected with HLA-B*07:02", "test": "cell-based"}, "HLA-C*07:02": {"biological_target": "HLA-C*07:02 (Homo sapiens, UniProt P10321)"}, "[1]": {"test_system": "CD4^+ T cell activation, HLA-DRB1*04:04 transgenic mice splenocytes", "type": "cell-based", "settings": "acute response to rVACV-CHIKV, listed as CHIKV E2_133-145"}}, "note": "Entries after “also recorded” stand apart in the source; their conditions may differ. Residues, ends and D or L forms follow the SMILES beside them.", "data": [{"compound": "CC[C@H](C)[C@H](NC(=O)[C@@H](NC(=O)[C@@H]1CCCN1C(=O)[C@H](CCCNC(=N)N)NC(=O)[C@@H]1CCCN1C(=O)[C@@H](NC(=O)[C@H](Cc1c[nH]c2ccccc12)NC(=O)[C@@H]1CCCN1C(=O)[C@@H](N)CCCNC(=N)N)[C@@H](C)O)[C@@H](C)O)C(=O)O", "note": "(H-RPWTPRPTI-OH)", "values": [{"measurement": "EC50", "setting": "HLA-B*07:02", "value": "6 ± 6", "unit": "µM"}]}, {"compound": "YEHVTVIPNTVGVPYK", "values": [{"measurement": "detection in HLA-bound peptide pool", "setting": "HLA-C*07:02", "value": "most likely a HLA-C*07:02 ligand"}]}, {"compound": "PPVIGREKFHSRP", "values": [{"measurement": "recognition of peptide-pulsed cells by spleen cells", "setting": "[1]", "value": "specifically recognized; also recorded: presented and recognized as an epitope bound to DRB1*04:04"}]}]}
